Test results published in patent US10633407B2, “14-membered ketolides and methods of their preparation and use” (President and Fellows of Harvard College, priority 2014, dated 2020).
≈ marks a conversion by molar mass, not a printed value. Read-outs that look alike come from different tables or passages of the source.

Assays:
[1] = ester bond, chlorobenzene, 1.0 mM, 150.0 °C, 16.0 h
A. baumannii IMP-4 = assay: CLSI broth dilution MIC determination; assay type: cell-based; settings: Acinetobacter baumannii, IMP4, read-out: MIC
P. aeruginosa ATCC 27853 = assay: CLSI broth dilution MIC determination; assay type: cell-based; settings: Pseudomonas aeruginosa, ATCC27853; P. aeruginosa ATCC 27853 (MP-3); read-out: MIC
[2] = tested on: A. baumannii chromosomal class C; assay: CLSI broth dilution MIC determination; assay type: cell-based; settings: Acinetobacter baumannii, read-out: MIC
S. pyogenes ATCC 19615 = assay: CLSI broth dilution MIC determination; assay type: cell-based; settings: Streptococcus pyogenes, ATCC19615, S. pyogenes ATCC 19615 (MP-19); read-out: MIC
[3] = tested on: E. faecalis Vancomycin-resistant; assay: CLSI broth dilution MIC determination; assay type: cell-based; settings: Enterococcus faecalis, E. faecalis Vancomycin-resistant (UNT-039); read-out: MIC
K. pneumoniae ATCC 10031 = assay: CLSI broth dilution MIC determination; assay type: cell-based; settings: Klebsiella pneumoniae, ATCC10031, K. pneumoniae ATCC 10031 (MP-14); read-out: MIC
E. faecalis ATCC 29212 = assay: CLSI broth dilution MIC determination; assay type: cell-based; settings: Enterococcus faecalis, ATCC29212, E. faecalis ATCC 29212 (MP-24); read-out: MIC
[4] = tested on: S. pyogenes Macrolide-resistant; assay: CLSI broth dilution MIC determination; assay type: cell-based; settings: Streptococcus pyogenes, S. pyogenes Macrolide-resistant (MP-625 UNT-014); read-out: MIC
[5] = tested on: H. influenzae Erythro >4, Azithro 1; assay: CLSI broth dilution MIC determination; assay type: cell-based; settings: Haemophilus influenzae; read-out: MIC
From the text: MIC data was collected for the novel macrolides that this platform has produced against over 21 unique strains of B. subtilis, E. coli, S. aureus, S. pneumoniae, and H. influenzae, including several multidrug-resistant strains, with a special focus on macrolide resistant mechanisms (vide supra). […] CLSI standard procedures for broth dilution MIC determination were used. […] These genotypes can be constitutive or inducible.

[6] = tested on: P. aeruginosa HPA101-1477; assay: CLSI broth dilution MIC determination; assay type: cell-based; settings: Pseudomonas aeruginosa, HPA1011477, read-out: MIC
K. pneumoniae KPC-2 = assay: CLSI broth dilution MIC determination; assay type: cell-based; settings: Klebsiella pneumoniae, KPC2, read-out: MIC
[7] = tested on: A. baumannii imipenem-resistant; assay: CLSI broth dilution MIC determination; assay type: cell-based; settings: Acinetobacter baumannii, read-out: MIC
A. baumannii ATCC 19606 = assay: CLSI broth dilution MIC determination; assay type: cell-based; settings: Acinetobacter baumannii, ATCC19606; A. baumannii ATCC 19606 (MP-15); read-out: MIC
K. pneumoniae TEM-10 = assay: CLSI broth dilution MIC determination; assay type: cell-based; settings: Klebsiella pneumoniae, TEM10, read-out: MIC
E. coli TEM-1 = assay: CLSI broth dilution MIC determination; assay type: cell-based; settings: Escherichia coli, TEM1
Method in brief: (§1)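 Broth dilution MICs determined by CLSI standard procedures across a strain panel that includes multidrug- and macrolide-resistant strains. Resistance genotypes may be constitutive or inducible.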

S. pneumoniae ATCC 49619 = assay: CLSI broth dilution MIC determination; assay type: cell-based; settings: Streptococcus pneumoniae, ATCC49619, S. pneumoniae ATCC 49619 (MP-21); read-out: MIC
Method in brief: as §1

S. aureus ATCC 29213 = assay: CLSI broth dilution MIC determination; assay type: cell-based; settings: Staphylococcus aureus, ATCC29213; S. aureus ATCC 29213 (MP-12); read-out: MIC
Method in brief: as §1

S. aureus MRSA: USA300 = assay: CLSI broth dilution MIC determination; assay type: cell-based; settings: Staphylococcus aureus; S. aureus MRSA: USA300 (MP-549, msr(a)); read-out: MIC
Method in brief: as §1

S. aureus USA600, GISA = assay: CLSI broth dilution MIC determination; assay type: cell-based; settings: Staphylococcus aureus; S. aureus USA600, GISA (MP-619 UNT-120); read-out: MIC
Method in brief: as §1

[8] = tested on: S. pneumoniae erm B + mef A genotype; assay: CLSI broth dilution MIC determination; assay type: cell-based; settings: Streptococcus pneumoniae
Method in brief: as §1

E. coli CTX-M-14 = assay: CLSI broth dilution MIC determination; assay type: cell-based; settings: Escherichia coli, CTXM14, read-out: MIC
Method in brief: as §1

S. aureus erm A genotype = assay: CLSI broth dilution MIC determination; assay type: cell-based; settings: Staphylococcus aureus; S. aureus erm A genotype (MP-620 UNT-146); read-out: MIC
Method in brief: as §1

E. coli NDM-1 = assay: CLSI broth dilution MIC determination; assay type: cell-based; settings: Escherichia coli, NDM1, read-out: MIC
Method in brief: as §1

[9] = tested on: S. pneumoniae erm B + tet(M,O) genotype; assay: CLSI broth dilution MIC determination; assay type: cell-based; settings: Streptococcus pneumoniae
Method in brief: as §1

H. influenzae ATCC49247 = assay: CLSI broth dilution MIC determination; assay type: cell-based; settings: Haemophilus influenzae, read-out: MIC
Method in brief: as §1

S. aureus MRSA: USA100 = assay: CLSI broth dilution MIC determination; assay type: cell-based; settings: Staphylococcus aureus; S. aureus MRSA: USA100 (MP-618 UNT-096); read-out: MIC
Method in brief: as §1

[10] = tested on: S. pneumoniae mef A genotype (first strain so labelled); assay: CLSI broth dilution MIC determination; assay type: cell-based; settings: Streptococcus pneumoniae, first strain (MP-626 UNT-038)
Method in brief: as §1

[11] = tested on: S. pneumoniae mef A genotype (second strain so labelled); assay: CLSI broth dilution MIC determination; assay type: cell-based; settings: Streptococcus pneumoniae, second strain (MP-627 UNT-039), read-out: MIC
Method in brief: as §1

E. coli ATCC 25922 = assay: CLSI broth dilution MIC determination; assay type: cell-based; settings: Escherichia coli, ATCC25922, E. coli ATCC 25922 (MP-4); read-out: MIC
Method in brief: as §1

K. pneumoniae SHV-12 = assay: CLSI broth dilution MIC determination; assay type: cell-based; settings: Klebsiella pneumoniae, SHV12, read-out: MIC

C=C1C(=O)[C@H](C)C[C@@](C)(OC)[C@H](O[C@@H]2O[C@H](C)C[C@H](N(C)C)[C@H]2OC(=O)OC)[C@@H](C)C(=O)C(C)C(=O)O[C@H](CC)[C@@]2(C)OC(=O)N(CCCCN=[N+]=[N-])[C@H]12 (some centres unmarked)
ring closure, yield of all isomers ([1]; from C=C(C(=O)[C@H](C)C[C@@](C)(OC)[C@H](O[C@@H]1O[C@H](C)C[C@H](N(C)C)[C@H]1OC(=O)OC)[C@@H](C)C1=C(C)C(=O)OC(C)(C)O1)[C@H]1N(CCCCN=[N+]=[N-])C(=O)O[C@]1(C)[C@H](O)CC): 23%

CC[C@H]1OC(=O)[C@H](C)C(=O)[C@H](C)[C@@H](O[C@@H]2O[C@H](C)C[C@H](N(C)C)[C@H]2OC(=O)OC)[C@](C)(OC)C[C@@H](C)C(=O)[C@H](C)[C@H]2N(CCCCN=[N+]=[N-])C(=O)O[C@]12C
ring closure, yield of all isomers ([1]; from CC[C@@H](O)[C@@]1(C)OC(=O)N(CCCCN=[N+]=[N-])[C@@H]1[C@@H](C)C(=O)[C@H](C)C[C@@](C)(OC)[C@H](O[C@@H]1O[C@H](C)C[C@H](N(C)C)[C@H]1OC(=O)OC)[C@@H](C)C1=C(C)C(=O)OC(C)(C)O1, none (thermal, dioxinone to acylketene)): 52%

CC[C@H]1OC(=O)[C@@H](C)C(=O)[C@H](C)[C@@H](O[C@@H]2OC(C)CC(N(C)C)C2O)[C@](C)(OC)C[C@@H](C)C(=O)[C@H](C)[C@H]2N(C/C=C/Cn3cc(-c4cccc(N)c4)nn3)C(=O)O[C@]12C (some centres unmarked) [FSM-100432]
MIC (A. baumannii IMP-4): > 32 µg/mL
MIC (P. aeruginosa ATCC 27853): > 32 µg/mL
MIC [2]: > 32 µg/mL
MIC (S. pyogenes ATCC 19615): < 0.0312 µg/mL
MIC [3]: > 32 µg/mL
MIC (K. pneumoniae ATCC 10031): 32 µg/mL (≈ 38.8 µM)
MIC (E. faecalis ATCC 29212): 0.125 µg/mL (≈ 0.152 µM)
MIC [4]: 0.0625 µg/mL (≈ 0.0758 µM)
MIC [5]: 8 µg/mL (≈ 9.7 µM)
MIC [6]: > 32 µg/mL
MIC (K. pneumoniae KPC-2): > 32 µg/mL
MIC [7]: > 32 µg/mL
MIC (A. baumannii ATCC 19606): > 32 µg/mL
MIC (K. pneumoniae TEM-10): > 32 µg/mL
MIC (E. coli TEM-1): > 32 µg/mL
MIC (S. pneumoniae ATCC 49619): < 0.0312 µg/mL
MIC (S. aureus ATCC 29213): 1 µg/mL (≈ 1.21 µM)
MIC (S. aureus MRSA: USA300): > 32 µg/mL
MIC (S. aureus USA600, GISA): > 32 µg/mL
MIC [8]: 2 µg/mL (≈ 2.42 µM)
MIC (E. coli CTX-M-14): > 32 µg/mL
MIC (S. aureus erm A genotype): > 32 µg/mL
MIC (E. coli NDM-1): > 32 µg/mL
MIC [9]: < 0.0312 µg/mL
MIC (H. influenzae ATCC49247): 8 µg/mL (≈ 9.7 µM)
MIC (S. aureus MRSA: USA100): > 32 µg/mL
MIC [10]: 0.125 µg/mL (≈ 0.152 µM)
MIC [11]: 0.5 µg/mL (≈ 0.606 µM)
MIC (E. coli ATCC 25922): > 32 µg/mL
MIC (K. pneumoniae SHV-12): > 32 µg/mL

C=C1C(=O)[C@H](C)C[C@@](C)(OC)[C@H](O[C@@H]2OC(C)CC(N(C)C)C2O)[C@@H](C)C(=O)[C@@H](C)C(=O)O[C@H](CC)[C@@]2(C)OC(=O)N(CCCCn3cc(-c4cccc(N)c4)nn3)[C@H]12 (some centres unmarked) [FSM-21828]
MIC (A. baumannii IMP-4): > 32 µg/mL
MIC (P. aeruginosa ATCC 27853): > 32 µg/mL
MIC [2]: > 32 µg/mL
MIC (S. pyogenes ATCC 19615): ≤ 0.0312 µg/mL
MIC [3]: > 32 µg/mL
MIC (K. pneumoniae ATCC 10031): 16 µg/mL (≈ 19.4 µM)
MIC (E. faecalis ATCC 29212): 1 µg/mL (≈ 1.21 µM)
MIC [4]: 0.5 µg/mL (≈ 0.606 µM)
MIC [5]: 16 µg/mL (≈ 19.4 µM)
MIC [6]: > 32 µg/mL
MIC (K. pneumoniae KPC-2): > 32 µg/mL
MIC [7]: > 32 µg/mL
MIC (A. baumannii ATCC 19606): > 32 µg/mL
MIC (K. pneumoniae TEM-10): > 32 µg/mL
MIC (E. coli TEM-1): > 32 µg/mL
MIC (S. pneumoniae ATCC 49619): ≤ 0.0312 µg/mL
MIC (S. aureus ATCC 29213): 4 µg/mL (≈ 4.85 µM)
MIC (S. aureus MRSA: USA300): > 32 µg/mL
MIC (S. aureus USA600, GISA): > 32 µg/mL
MIC [8]: 32 µg/mL (≈ 38.8 µM)
MIC (E. coli CTX-M-14): > 32 µg/mL
MIC (S. aureus erm A genotype): > 32 µg/mL
MIC (E. coli NDM-1): > 32 µg/mL
MIC [9]: ≤ 0.0312 µg/mL
MIC (H. influenzae ATCC49247): 16 µg/mL (≈ 19.4 µM)
MIC (S. aureus MRSA: USA100): > 32 µg/mL
MIC [10]: 0.0625 µg/mL (≈ 0.0758 µM)
MIC [11]: 0.5 µg/mL (≈ 0.606 µM)
MIC (E. coli ATCC 25922): > 32 µg/mL
MIC (K. pneumoniae SHV-12): > 32 µg/mL
